What was measured:
[1] = test system: corn earworm (Helicoverpa zea); details: 50 μg/cm2, second-instar larvae, 5 days
[2] = test system: beet armyworm (Spodoptera exigua); assay: Insecticidal test for beet armyworm in injection assays; details: 1 h, read-out: BAW SYM: % showing intoxicated symptoms at 10 μg/larva against beet armyworm in injection tests
[3] = test system: Colorado potato beetle (Leptinotarsa decemlineata); assay: Insecticidal test for Colorado potato beetle, foliar spray on tomato; type: in vivo; details: for % Control at ppm, against Colorado potato beetle: 12.5: 12.5 ppm; for CPB 50: % control at 50 ppm against Colorado potato beetle in foliar spray tests: 5 days, Corrected % Control; for CPB 50: % control at 50 ppm against Colorado potato beetle in foliar spray tests / % Control at ppm, against Colorado potato beetle: 50: 50 ppm
Protocol: Insecticidal Test for Colorado Potato Beetle (Leptinotarsa decemlineata).
Tomato seedlings at the growth stage of three or four expanding leaves were used. […] Treated plants were held in the laboratory for approximately 3 h to allow drying before the upper portion (with two or three leaves) of a plant was cut and placed in a 10×2.5-cm petri dish containing approximately 10 mL of solidified 1% agar at the bottom. Five 2nd or 3rd instar larvae were placed on the treated plant tissue, and the petri dishes were covered and held in an incubator at 25° C. At 5 days following treatment, insecticidal activity was evaluated by counting the number of live larvae in each dish.

[4] = test system: green peach aphid (Myzus persicae); assay: Insecticidal test for green peach aphid, foliar spray on cabbage seedlings; details: rundown assay, 3 days
[5] = test system: fruit fly (Drosophila melanogaster); details: for FF SYM: % showing intoxicated symptoms at 25 μg/cm2 against fruit fly in dietary tests: 25 μg/cm2, 4 h; for FF 25: % mortality at 25 μg/cm2 against fruit fly in dietary tests: 25 μg/cm2, 48 h
[6] = test system: yellow fever mosquito (Aedes aegypti) larvae; assay: whole plant or invertebrate; type: in vivo; details: 72 h, read-out: YFM 26: % control at 26 ppm against yellow fever mosquito in submerge tests
[7] = test system: sweet potato whitefly (Bemisia tabaci); assay: Insecticidal test for sweet potato whitefly, foliar spray on cotton; details: for % Control at ppm, against sweet potato whitefly: 0.4-0.78: 0.4-0.78 ppm; for % Control at ppm, against sweet potato whitefly: 0.4-0.78 / % Control at ppm, against sweet potato whitefly: 2-3.13 / % Control at ppm, against sweet potato whitefly: 10-12.5 / % Control at ppm, against sweet potato whitefly: 50: rundown assay; for % Control at ppm, against sweet potato whitefly: 2-3.13: 2-3.13 ppm; for % Control at ppm, against sweet potato whitefly: 10-12.5: 10-12.5 ppm; for % Control at ppm, against sweet potato whitefly: 50: 50 ppm; for pest or weed control at 200 ppm: Bemisia tabaci, in Gossypium hirsutum, foliar, read-out: SPW 200: % control at 200 ppm against sweet potato whitefly in foliar spray tests
[8] = test system: cotton aphid (Aphis gossypii); assay: Insecticidal test for cotton aphid, foliar spray on squash; details: for pest or weed control at 50 ppm / pest or weed control at 200 ppm: Aphis gossypii, foliar, 72 h; for pest or weed control at 50 ppm: read-out: CA 50: % control at 50 ppm against cotton aphid in foliar spray tests; for pest or weed control at 200 ppm: read-out: CA 200: % control at 200 ppm against cotton aphid in foliar spray tests
[9] = test system: beet armyworm (Spodoptera exigua); details: 50 μg/cm2, second-instar larvae, 5 days

| SMILES | CEW 50: % mortality at 50 μg/cm2 against corn earworm in dietary tests [1] | pest or weed control at 0.01 mg [2] [%] | % Control at ppm, against Colorado potato beetle: 12.5 ([3]; rundown assay) | CPB 50: % control at 50 ppm against Colorado potato beetle in foliar spray tests [3] | % Control at ppm, against Colorado potato beetle: 50 ([3]; rundown assay) | FF SYM: % showing intoxicated symptoms at 25 μg/cm2 against fruit fly in dietary tests [5] | FF 25: % mortality at 25 μg/cm2 against fruit fly in dietary tests [5] | pest or weed control at 26 ppm [6] [%] | % Control at ppm, against sweet potato whitefly: 0.4-0.78 [7] | % Control at ppm, against sweet potato whitefly: 2-3.13 [7] | % Control at ppm, against sweet potato whitefly: 10-12.5 [7] | % Control at ppm, against sweet potato whitefly: 50 [7] | pest or weed control at 200 ppm [7] [%] | pest or weed control at 50 ppm [8] [%] | pest or weed control at 200 ppm [8] [%] | BAW 50: % mortality at 50 μg/cm2 against beet armyworm in dietary tests [9] | further results |
| --- | --- | --- | --- | --- | --- | --- | --- | --- | --- | --- | --- | --- | --- | --- | --- | --- | --- |
| N#CN=[S@@]1(=O)CCCC1Cc1ccc(Cl)nc1 (stereo partly shown) [Compound 20] | G (Inactive) | 80 to 89 | A (90-100) | A (90-100) | A (90-100) | F (Less than 50) | F (Less than 50) | 90 to 100 | F (Less than 50) | F (Less than 50) | A (90-100) | A (90-100) | 90 to 100 | 90 to 100 | 90 to 100 | G (Inactive) | % Control at ppm, against Colorado potato beetle: 0.78 ([3]; 0.78 ppm, rundown assay): F (Less than 50); % Control at ppm, against Colorado potato beetle: 3.13 ([3]; 3.13 ppm, rundown assay): F (Less than 50); % Control at ppm, against green peach aphid: 0.049 ([4]; 0.049 ppm): F (Less than 50); % Control at ppm, against green peach aphid: 0.195 ([4]; 0.195 ppm): F (Less than 50); % Control at ppm, against green peach aphid: 0.78 ([4]; 0.78 ppm): F (Less than 50); % Control at ppm, against green peach aphid: 3.12 ([4]; 3.12 ppm): F (Less than 50); % Control at ppm, against green peach aphid: 12.5 ([4]; 12.5 ppm): A (90-100); % Control at ppm, against green peach aphid: 50 ([4]; 50 ppm): A (90-100); % Control at ppm, against cotton aphid: 0.049 ([8]; 0.049 ppm, rundown assay): B (80-89); % Control at ppm, against cotton aphid: 0.195 ([8]; 0.195 ppm, rundown assay): A (90-100); % Control at ppm, against cotton aphid: 0.78 ([8]; 0.78 ppm, rundown assay): A (90-100); % Control at ppm, against cotton aphid: 3.12 ([8]; 3.12 ppm, rundown assay): A (90-100); % Control at ppm, against cotton aphid: 12.5 ([8]; 12.5 ppm, rundown assay): A (90-100); % Control at ppm, against cotton aphid: 50 ([8]; 50 ppm, rundown assay): A (90-100) |
| CS(=O)(Cc1ccc(Cl)nc1)=NC#N (stereo not shown) [Compound 10, [(6-Chloropyridin-3-yl)methyl](methyl)oxido-λ^4-sulfanylidene-cyanamide] | G (Inactive) | < 50 | E (50-59) | B (80-89) | B (80-89) | A (90-100) | A (90-100) | 90 to 100 | F (Less than 50) | D (60-69) | A (90-100) | A (90-100) | 90 to 100 | 90 to 100 | 90 to 100 | G (Inactive) | – |
